US10774064B2 (Cadent Therapeutics, Inc., priority 2016, dated 2020)

What follows are compounds tested against T1, small-conductance Ca2+-activated K+ channels (SK channels, subtype 2) (Homo sapiens, UniProt Q9H2S1) (assay: whole-cell patch-clamp of ionic current through SK2 channels in HEK293 cells (SC100)). Settings: whole-cell patch-clamp, HEK293 cells expressing SK2 channels; concentration that increases the basal current by 100%.
T1 construct: expressed in transfected cells; host or cells: HEK293
Type: cell-based
How it was run: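 SC100, the concentration doubling basal current (a 100% increase), was taken from SK2 currents recorded by whole-cell patch-clamp in SK2-expressing HEK293 cells.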
`Cc1ccn(-c2nc(NC3CCC(F)(F)CC3)cc(N3CCN(C)C(=O)C3)n2)n1` [IN11177-049-P1] was tested, and the “SC100 (μM)” value was “++ (++ means 200 nM-1000 nM)”.
`Cc1ccn(-c2cc(OCc3cnco3)cc(NC3CCC(F)(F)CC3)n2)n1` [IN11177-056-P1] was tested, and the “SC100 (μM)” value was “+++ (+++ means <200 nM)”.
In the case of `Cc1csc(-c2nc(NC3CCC(F)(F)CC3)cc(C(C)C)n2)n1` [IN11177-064-P1, N-(4,4-difluorocyclohexyl)-6-isopropyl-2-(4-methylthiazol-2-yl)pyrimidin-4-amine], the “SC100 (μM)” value is reported as “++ (++ means 200 nM-1000 nM)”.
In the case of `N#Cc1ccn(-c2nc(NC3CCC(F)(F)CC3)cc(N3CCOCC3)n2)n1` [IN11177-068-P1], the “SC100 (μM)” value is reported as “+ (+ means >1 uM)”.
`Cc1csc(-c2nc(NC3CCC(F)(F)CC3)cc(OCC#N)n2)n1` [IN11196-007-P1, 2-((6-((4,4-difluorocyclohexyl)amino)-2-(4-methylthiazol-2-yl)pyrimidin-4-yl)oxy)acetonitrile] was tested, and the “SC100 (μM)” value was “++ (++ means 200 nM-1000 nM)”.
With `Cc1csc(-c2nc(NC3CCC(F)(F)CC3)cc(=O)n2CC#N)n1` [IN11196-007-P2, 2-(4-((4,4-difluorocyclohexyl)amino)-2-(4-methylthiazol-2-yl)-6-oxopyrimidin-1(6H)-yl)acetonitrile] the “SC100 (μM)” value was “+ (+ means >1 uM)”.
In the case of `COC(C)c1cc(NC2CCC(F)(F)CC2)nc(-n2ccc(C3CC3)n2)n1` (stereo not drawn) [IN11196-026-P1, 2-(3-cyclopropyl-1H-pyrazol-1-yl)-N-(4,4-difluorocyclohexyl)-6-(1-methoxyethyl)pyrimidin-4-amine], the “SC100 (μM)” value is reported as “+ (+ means >1 uM)”.
For `[2H]C1([2H])OC([2H])([2H])C([2H])([2H])N(c2cc(NC3CCC(F)(F)CC3)nc(-n3ccc(C)n3)n2)C1([2H])[2H]` [IN11196-039-P1], the “SC100 (μM)” value was “++ (++ means 200 nM-1000 nM)”.
`CC1=NN(c2nc(NC3CCC(F)(F)CC3)cc(N3CCOCC3)n2)CC1` [IN11196-041-P1, N-(4,4-difluorocyclohexyl)-2-(3-methyl-4,5-dihydro-1H-pyrazol-1-yl)-6-morpholinopyrimidin-4-amine] was tested, and the “SC100 (μM)” value was “+ (+ means >1 uM)”.
In the case of `COc1c(NC2CCC(F)(F)CC2)nc(-c2nc(C)cs2)n(CC#N)c1=O` [IN11196-065-P1], the “SC100 (μM)” value is reported as “+ (+ means >1 uM)”.
With `Cc1csc(-c2nc(NC3CCC(F)(F)CC3)cc(-c3ccccn3)n2)n1` [IN11196-080-P1] the “SC100 (μM)” value was “+ (+ means >1 uM)”.
For `Cc1ccc(-c2nc(NC3CCC(F)(F)CC3)cc(N3CCOCC3)n2)[nH]1` [IN11196-081-P1, N-(4,4-difluorocyclohexyl)-2-(5-methyl-1H-pyrrol-2-yl)-6-morpholino pyrimidin-4-amine], the “SC100 (μM)” value was “+ (+ means >1 uM)”.
In the case of `Cc1cc(NC2CCC(F)(F)CC2)nc(-n2cc3c(n2)CCC3)n1` [IN11216-001-P1], the “SC100 (μM)” value is reported as “+ (+ means >1 uM)”.
For `CCOC(=O)c1cn(-c2nc(NC3CCC(F)(F)CC3)cc(N3CCOCC3)n2)nc1C` [IN11216-043-P1], the “SC100 (μM)” value was “+ (+ means >1 uM)”.
`Cc1nn(-c2nc(NC3CCC(F)(F)CC3)cc(N3CCOCC3)n2)cc1F` [IN11216-050-P1] was tested, and the “SC100 (μM)” value was “++ (++ means 200 nM-1000 nM)”.
`Cc1cc(NC2CCC(F)(F)CC2)nc(-n2cc(-n3cc(F)c(C)n3)c(C)n2)n1` [IN11216-072-P1] was tested, and the “SC100 (μM)” value was “+ (+ means >1 uM)”.
In the case of `COc1nn(-c2nc(NC3CCC(F)(F)CC3)cc(N3CCOCC3)n2)cc1F` [IN11216-073-P1], the “SC100 (μM)” value is reported as “+++ (+++ means <200 nM)”.
`FC1(F)CCC(Nc2cc(N3CCCOCC3)nc(-n3ccc(C4CC4)n3)n2)CC1` [IN11217-003-P1, 2-(3-cyclopropyl-1H-pyrazol-1-yl)-N-(4,4-difluorocyclohexyl)-6-(1,4-oxazepan-4-yl)pyrimidin-4-amine] was tested, and the “SC100 (μM)” value was “++ (++ means 200 nM-1000 nM)”.
For `Cc1ccn(-c2cc(COc3cccnn3)cc(NC3CCC(F)(F)CC3)n2)n1` [IN11217-056-P1, N-(4,4-difluorocyclohexyl)-6-(3-methyl-1H-pyrazol-1-yl)-4-((pyridazin-3-yloxy)methyl)pyridin-2-amine], the “SC100 (μM)” value was “++ (++ means 200 nM-1000 nM)”.
For `OC(c1cc(NC2CCC(F)(F)CC2)nc(-n2ccc(C3CC3)n2)n1)C(F)(F)F` (stereo not drawn) [IN11217-068-P1, 1-(2-(3-cyclopropyl-1H-pyrazol-1-yl)-6-((4,4-difluorocyclohexyl)amino)pyrimidin-4-yl)-2,2,2-trifluoroethan-1-ol], the “SC100 (μM)” value was “+ (+ means >1 uM)”.
In the case of `CCOCCc1cc(NC2CCC(F)(F)CC2)nc(-n2ccc(C3CC3)n2)n1` [IN11217-069-P1, 2-(3-cyclopropyl-1H-pyrazol-1-yl)-N-(4,4-difluorocyclohexyl)-6-(2-ethoxyethyl)pyrimidin-4-amine], the “SC100 (μM)” value is reported as “+ (+ means >1 uM)”.
For `COc1cc(C)n(-c2nc(NC3CCC(F)(F)CC3)cc(N3CCOCC3)n2)n1` [IN11217-088-P1], the “SC100 (μM)” value was “+ (+ means >1 uM)”.
For `CC(=O)N1CCC(Oc2cc(NC3CCC(F)(F)CC3)nc(-n3ccc(C)n3)c2)CC1` [IN11218-025-P1, 1-(4-((2-((4,4-difluorocyclohexyl)amino)-6-(3-methyl-1H-pyrazol-1-yl)pyridin-4-yl)oxy)piperidin-1-yl)ethan-1-one], the “SC100 (μM)” value was “++ (++ means 200 nM-1000 nM)”.
`Cc1cc(NC2CCC(F)(F)CC2)nc(-n2ccc(C3(N)CC3)n2)n1` [IN11218-026-P1, 2-(3-(1-aminocyclopropyl)-1H-pyrazol-1-yl)-N-(4,4-difluorocyclohexyl)-6-methylpyrimidin-4-amine hydrogen chloride] was tested, and the “SC100 (μM)” value was “+ (+ means >1 uM)”.
For `Cc1csc(-c2nc(NC3CCC(F)(F)CC3)cc(-c3ccccc3)n2)n1` [IN11218-030-P1], the “SC100 (μM)” value was “++ (++ means 200 nM-1000 nM)”.
`Cc1csc(-c2nc(NC3CCC(F)(F)CC3)cc(C(C)(C)C)n2)n1` [IN11220-039-P1, 6-(tert-butyl)-N-(4,4-difluorocyclohexyl)-2-(4-methylthiazol-2-yl)pyrimidin-4-amine] was tested, and the “SC100 (μM)” value was “++ (++ means 200 nM-1000 nM)”.
In the case of `Cc1ccnn1-c1nc(NC2CCC(F)(F)CC2)cc(N2CCOCC2)n1` [IN11237-056-P1], the “SC100 (μM)” value is reported as “+ (+ means >1 uM)”.
`CCOC(=O)c1cnc(-c2nc(C)cs2)nc1NC1CCC(F)(F)CC1` [IN11238-035-P1, ethyl 4-((4,4-difluorocyclohexyl)amino)-2-(4-methylthiazol-2-yl)pyrimidine-5-carboxylate] was tested, and the “SC100 (μM)” value was “+ (+ means >1 uM)”.
For `Cc1csc(-c2ncc(CO)c(NC3CCC(F)(F)CC3)n2)n1` [IN11238-040-P1, (4-((4,4-difluorocyclohexyl)amino)-2-(4-methylthiazol-2-yl)pyrimidin-5-yl) methanol], the “SC100 (μM)” value was “+ (+ means >1 uM)”.
For `COCc1cnc(-c2nc(C)cs2)nc1NC1CCC(F)(F)CC1` [IN11238-046-P1], the “SC100 (μM)” value was “+ (+ means >1 uM)”.
For `NC(=O)OCc1cc(NC2CCC(F)(F)CC2)nc(-n2ccc(C3CC3)n2)n1` [IN11239-001-P1, (2-(3-cyclopropyl-1H-pyrazol-1-yl)-6-((4,4-difluorocyclohexyl)amino)pyrimidin-4-yl)methyl carbamate], the “SC100 (μM)” value was “++ (++ means 200 nM-1000 nM)”.
`Cc1csc(-c2nc(C)cc(NC3CCC(F)(F)CC3)n2)c1` [IN11239-029-P1, N-(4,4-difluorocyclohexyl)-6-methyl-2-(4-methylthiophen-2-yl)pyrimidin-4-amine] was tested, and the “SC100 (μM)” value was “+ (+ means >1 uM)”.
For `CC(=O)c1ccn(-c2nc(NC3CCC(F)(F)CC3)cc(N3CCOCC3)n2)n1` [IN11243-031-P1], the “SC100 (μM)” value was “+ (+ means >1 uM)”.
For `CC(F)c1ccn(-c2nc(NC3CCC(F)(F)CC3)cc(N3CCOCC3)n2)n1` (stereo not drawn) [IN11243-041-P1], the “SC100 (μM)” value was “+++ (+++ means <200 nM)”.
`Cc1cc(NC2CCC(F)(F)CC2)nc(-n2ccc(C(C)F)n2)n1` (stereo not drawn) [IN11243-042-P1, N-(4,4-difluorocyclohexyl)-2-(3-(1-fluoroethyl)-1H-pyrazol-1-yl)-6-methylpyrimidin-4-amine] was tested, and the “SC100 (μM)” value was “++ (++ means 200 nM-1000 nM)”.
`CC(F)(F)c1ccn(-c2nc(NC3CCC(F)(F)CC3)cc(N3CCOCC3)n2)n1` [IN11243-050-P2] was tested, and the “SC100 (μM)” value was “++ (++ means 200 nM-1000 nM)”.
`Cc1cc(NC2CCC(F)(F)CC2)nc(-n2ccc(C3=CCCC3)n2)n1` [IN11250-007-P1, 2-(3-(cyclopent-1-en-1-yl)-1H-pyrazol-1-yl)-N-(4,4-difluorocyclohexyl)-6-methylpyrimidin-4-amine] was tested, and the “SC100 (μM)” value was “+ (+ means >1 uM)”.
In the case of `Cc1cc(NC2CCC(F)(F)CC2)nc(-n2ccc(C3CCCC3)n2)n1` [IN11250-017-P1, 2-(3-cyclopentyl-1H-pyrazol-1-yl)-N-(4,4-difluorocyclohexyl)-6-methylpyrimidin-4-amine], the “SC100 (μM)” value is reported as “+ (+ means >1 uM)”.
`C=Cc1ccn(-c2nc(C)cc(NC3CCC(F)(F)CC3)n2)n1` [IN11250-031-P1] was tested, and the “SC100 (μM)” value was “+ (+ means >1 uM)”.
With `Cc1ccn(-c2nc(NCCO)cc(NC3CCC(F)(F)CC3)n2)n1` [IN11250-032-P1] the “SC100 (μM)” value was “++ (++ means 200 nM-1000 nM)”.
With `Cc1cc(NC2CCC(F)(F)CC2)nc(-n2ccc(C3(O)CC3)n2)n1` [IN11251-011-P1, 1-(1-(4-((4,4-difluorocyclohexyl)amino)-6-methylpyrimidin-2-yl)-1H-pyrazol-3-yl)cyclopropan-1-ol] the “SC100 (μM)” value was “+ (+ means >1 uM)”.
For `CCC(O)c1ccn(-c2nc(C)cc(NC3CCC(F)(F)CC3)n2)n1` (stereo not drawn) [IN11251-011-P2, 1-(1-(4-((4,4-difluorocyclohexyl)amino)-6-methylpyrimidin-2-yl)-1H-pyrazol-3-yl)propan-1-ol], the “SC100 (μM)” value was “+ (+ means >1 uM)”.
For `Cc1cc(NC2CCC(F)(F)CC2)nc(-n2ccc(C(=O)OC(C)C)n2)n1` [IN11251-020-P1, isopropyl 1-(4-((4,4-difluorocyclohexyl)amino)-6-methylpyrimidin-2-yl)-1H-pyrazole-3-carboxylate], the “SC100 (μM)” value was “+ (+ means >1 uM)”.
With `COC(=O)N1CCC(O)(c2cc(NC3CCC(F)(F)CC3)nc(-n3ccc(C)n3)c2)C1` (stereo not drawn) [IN11251-035-P1, methyl 3-(2-((4,4-difluorocyclohexyl)amino)-6-(3-methyl-1H-pyrazol-1-yl)pyridin-4-yl)-3-hydroxypyrrolidine-1-carboxylate] the “SC100 (μM)” value was “++ (++ means 200 nM-1000 nM)”.
With `COC(=O)N(C)Cc1cc(NC2CCC(F)(F)CC2)nc(-c2nc(C)cs2)c1` [IN11251-043-P1] the “SC100 (μM)” value was “++ (++ means 200 nM-1000 nM)”.
